According to paper PMC4356640 (Pharmacogenetics and genomics, 2015):

Key:
[1] = Tamoxifen and metabolite steady state plasma concentrations; settings: for pharmacokinetics differ by CYP2D6 genotype: 3 and 6 month visits; for 3m or 6m steady state concentrations correlated with age: p-values > 0.11
CYP2D6 enzyme activity = assay: 13C-dextromethorphan breath test; type: in vivo, human

## CC/C(=C(\c1ccc(O)cc1)c1ccc(OCCN(C)C)cc1)c1ccccc1 [4HT, 4-hydroxytamoxifen]
[1]
  pharmacokinetics differ by CYP2D6 genotype: Neither tamoxifen, NDMT, or 4HT pharmacokinetics were found to differ by CYP2D6 genotype
  3m or 6m steady state concentrations correlated with age: no evidence

## COc1ccc2c(c1)[C@]13CCCC[C@@H]1[C@H](C2)N(C)CC3 [DM, Dextromethorphan]
CYP2D6 enzyme activity; Spearman, p < 0.0001, n=77
  correlation (r) of baseline DM-BT values with CYP2D6 genotype: 0.55
CYP2D6 enzyme activity; Spearman, p < 0.001, n=55
  correlation (r) of 6m DM-BT values with CYP2D6 genotype: 0.55
CYP2D6 enzyme activity; Spearman, p< 0.0001, n=60
  correlation (r) of 3m DM-BT values with CYP2D6 genotype: 0.58

## CC/C(=C(\c1ccc(O)cc1)c1ccc(OCCNC)cc1)c1ccccc1 [Endx, endoxifen]
[1]; Spearman, p < 0.0001, n=57
  correlation (r) of CYP2D6 genotype with 3m Endx Css: 0.47
  correlation (r) of CYP2D6 genotype with 3m Endx/NDMT ratio: 0.60
[1]; Spearman, p<0.0001, n=54
  correlation (r) of CYP2D6 genotype with 6m Endx/NDMT ratio: 0.61
  correlation (r) of CYP2D6 genotype with 6 month Endx Css: 0.56
[1]; comparison with ref 14
  concentrations of endoxifen, fold lower than that of Lien et al: ~8 fold
[1]; human, plasma, oral, 20 mg daily, Median Endx concentration (range), Endx Css, 3 months, CYP2D6 PM/PM, activity score 0, n=2
  concentration at 3 months: 5.5 nM
[1]; human, plasma, oral, 20 mg daily, Median Endx concentration (range), Endx Css, 6 months, CYP2D6 PM/PM, activity score 0, n=2
  concentration at 6 months: 6.7 nM
[1]
  3m or 6m steady state concentrations correlated with age: no evidence

## CC/C(=C(\c1ccccc1)c1ccc(OCCNC)cc1)c1ccccc1 [NDMT, N-desmethyltamoxifen]
[1]
  pharmacokinetics differ by CYP2D6 genotype: Neither tamoxifen, NDMT, or 4HT pharmacokinetics were found to differ by CYP2D6 genotype
  3m or 6m steady state concentrations correlated with age: no evidence

## Fc1ccc([C@@H]2CCNC[C@H]2COc2ccc3c(c2)OCO3)cc1 [paroxetine]
CYP2D6 enzyme activity; one patient who took paroxetine prior to the baseline visit
  baseline DOB30 values lower than at 3 and 6 month visits after paroxetine was discontinued: > 50%

## CC/C(=C(\c1ccccc1)c1ccc(OCCN(C)C)cc1)c1ccccc1 [tamoxifen, Tamoxifen, reference compound]
[1]
  3m or 6m steady state concentrations correlated with age: no evidence
